Test results from patent US20260000656A1, “ANTIFUNGAL AGENTS WITH ENHANCED ACTIVITY IN ACIDIC PH” (Scynexis, Inc., priority 2017, published 2026).
Where two headings read alike, the source gives them in different places.

How the values were obtained:
[1] = test system: vulvovaginal candidiasis (Candida spp.); type: in vivo, human; settings: for rate of mycological eradication: SCY-078 combined arms / fluconazole arm; for Therapeutic cure (clinical cure and mycological eradication) / mycological eradication / clinical cure: ITT population; for Therapeutic cure (clinical cure and mycological eradication): Day 24 Test-of-Cure visit; for Therapeutic cure (clinical cure and mycological eradication) / mycological eradication: combined SCY-078 arms (n = 64) / fluconazole 150 mg (n = 32); for mycological eradication / clinical cure: Test-of-Cure visit (Day 24); for clinical cure: combined SCY-078 arms (n = 64, 1250 mg then 750 mg QD for 2 or 4 days) / fluconazole 150 mg single dose (n = 32)
Procedure: As a first step of the feasibility evaluation, a proof-of-concept exploratory trial in 96 patients with moderate to severe acute VVC was conducted. Subjects received SCY-078 tablets orally, administered at a dose of 1250 mg on day 1, followed by 750 mg once a day for 2 or 4 days. A comparator group of patients receiving oral fluconazole at the approved dose (150 mg, single dose) was also included.
This study was a proof-of-concept study conducted to evaluate the safety and efficacy of two dosing regimens of oral SCY-078 (administered as the phosphate salt) in subjects presenting with moderate to severe VVC.
Key criteria for inclusion included: • 1. Subjects with moderate to severe VVC, confirmed by positive potassium hydroxide (KOH) test from a vaginal secretion sample • 2. Three vaginitis episodes in the past year that were either confirmed to be caused by Candida spp. or that responded to antifungal therapy
Subjects were randomized in a 1:1:1 ratio to one of the three treatment arms: Oral SCY-078 loading dose of 1250 mg SCY-078, followed by 750 mg SCY-078 QD for 2 days or for 4 days, or Oral Fluconazole 150 mg for 1 day.
Subjects were evaluated on Day 24 (Test-of-Cure visit), Day 60, Day 90, and 120 days (end of study).
The analyses included clinical cure (all signs and symptoms present at baseline improved by at least two points (e.g., from moderate to absent or from severe to mild); after the study started, the FDA proposed that clinical cure is achieved if all signs and symptoms present at baseline are absent), mycological eradication (a negative culture for the baseline yeast pathogen), and therapeutic cure (both clinical cure and mycological eradication). Clinical cure has been proposed by the FDA as the primary endpoint for assessment of efficacy in VVC.
Ninety-six subjects were enrolled (intent-to-treat (ITT) population), and 70 subjects had cultured-confirmed Candida spp. infection (per protocol (PP) population).

[2] = test system: acute VVC (Candida spp. vaginal infection); test: clinical; type: in vivo, human; settings: for mycological eradication / percentage of patients showing an S&S score of 0 or 1 / mean S&S score / percentage of patients with 0-or-1 S&S score / percentage of patients with clinical cure: SCY-078 600 mg dose arm / fluconazole arm; for mean S&S score: scale 0 to 18; for clinical cure / clinical cure, number of patients: Day 10 Test-of-Cure, mITT, SCY-078 600 mg (300 mg BID 1 day, n=27) / fluconazole 150 mg (n=24); for percentage of patients with 0-or-1 S&S score / percentage of patients with clinical cure: Day 25 Follow-Up visit; for patients who received rescue antifungal medication: through Day 25 Follow-Up, SCY-078 600 mg (n=27) / fluconazole (n=24)
Procedure: A Phase 2 study was conducted to evaluate the safety, efficacy, tolerability, and pharmacokinetics of five dose regimens of oral SCY-078 (administered as the citrate salt) compared to oral fluconazole in adult, female patients with moderate-to-severe acute VVC (defined as having a signs and symptoms (S&S) score of 7 or greater). A total of 186 intent-to-treat (ITT) patients were randomized into six different treatment arms as follows: five different dosing regimens of oral SCY-078 and one oral fluconazole treatment arm. The modified intent-to-treat (mITT) population was used for efficacy analysis and included 153 patients with culture-confirmed Candida spp. vaginal infection (positive microscopic examination of vaginal secretions showing yeast, vaginal pH≤4.5) at baseline. The doses of SCY-078 tested ranged from 600 mg to 1800 mg total dose administered over the duration of treatment, and the durations of treatment were 1 or 3 days:
The primary efficacy endpoint was clinical cure, which according to current FDA guidance is defined as complete resolution (score=0) of all signs and symptoms at the Day 10 Test-of-Cure visit without the need of additional antifungal therapy. Secondary endpoints included mycological eradication (negative culture) and a composite endpoint including both clinical cure and mycological eradication. Response was also evaluated based on the percent of patients achieving a noticeable improvement in their signs and symptoms, either by achieving an S&S score of 0 or 1 or an absolute change (reduction) in mean composite S&S score from baseline. An S&S score is based on a patient's reported symptoms (burning, itching, and irritation) and investigator-assessed signs (swelling, redness, and excoriations); each sign and symptom can be absent, mild, moderate, or severe, with a corresponding score from 0 to 3; the total composite scale is 0 to 18 points. Response was further evaluated by assessing the number of patients who received rescue antifungal therapy. Patients were assessed at the Day 10 Test-of-Cure visit and also at a Day 25 Follow-Up visit. The study was not designed to achieve statistically significant differences in any of the evaluated endpoints.

[3] = Day 24, per protocol population, SCY-078 Combined (n = 50) / Fluconazole (n = 20)
[4] = Month 4, SCY-078 Combined (n = 50) / Fluconazole (n = 20)
[5] = Day 24, per protocol population
[6] = Day 24, per protocol population, SCY-078 3-Days arm (n = 24)
[7] = Day 24, per protocol population, SCY-078 5-Days arm (n = 26)
[8] = Month 4, SCY-078 3-Days arm (n = 24)
[9] = Month 4, SCY-078 5-Days arm (n = 26)

Structure (SMILES): OC(Cn1cncn1)(Cn1cncn1)c1ccc(F)cc1F [Fluconazole, reference compound]
- Clinical Cure (Updated FDA Definition), rate [1, 3]: 55%
- Clinical Cure, rate [1, 3]: 65%
- rate of mycological eradication ([1]; Day 24): 65%
- Therapeutic cure (clinical cure and mycological eradication) [1]: 56.3%
- Therapeutic cure (clinical cure and mycological eradication) ([1]; listed as fluconazole): 56.3%
- mycological eradication [1]: 68.8%
- clinical cure [1]: 65.6%
- Clinical Cure, rate [1, 4]: 65%
- Recurrences Requiring Antifungal Therapy, rate [1, 4]: 15%
- “0” Signs and Symptoms, rate [1, 4]: 65%
- rate of mycological eradication ([1]; Month 4): 60%
- mycological eradication ([2]; Day 10, mITT): 63%
- percentage of patients showing an S&S score of 0 or 1 ([2]; Day 10, mITT): 71%
- mean S&S score ([2]; Day 10, mITT): 1.8
- clinical cure [2]: 58%
- clinical cure, number of patients [2]: 14
- mycological eradication ([2]; Day 25): 38%
- mean S&S score ([2]; Day 25): 2.6
- percentage of patients with 0-or-1 S&S score [2]: 58%
- percentage of patients with clinical cure [2]: 50%
- patients who received rescue antifungal medication [2]: 29%

Structure (SMILES): CC(C)[C@@H](C)[C@@]1(C)CC[C@]2(C)[C@H]3CC[C@@H]4[C@@]5(COC[C@]4(C)[C@@H](OC[C@](C)(N)C(C)(C)C)[C@H](n4ncnc4-c4ccncc4)C5)C3=CC[C@@]2(C)[C@@H]1C(=O)O [SCY-078]
- % Δ SCY-078 (combined) vs. Fluconazole, Clinical Cure [1, 5]: 11%
- % Δ SCY-078 (combined) vs. Fluconazole, Clinical Cure (Updated FDA Definition) [1, 5]: 15%
- Clinical Cure (Updated FDA Definition), rate [1, 6]: 70.8%
- Clinical Cure, rate [1, 6]: 79.2%
- Clinical Cure (Updated FDA Definition), rate [1, 7]: 69.2%
- Clinical Cure, rate [1, 7]: 73.1%
- Clinical Cure (Updated FDA Definition), rate [1, 3]: 70%
- Clinical Cure, rate [1, 3]: 76%
- rate of mycological eradication ([1]; Day 24): 70%
- Therapeutic cure (clinical cure and mycological eradication) [1]: 56.3%
- mycological eradication [1]: 70.3%
- clinical cure [1]: 78.1%
- % Δ SCY-078 (combined) vs. Fluconazole, Clinical Cure ([1]; Month 4): 23%
- % Δ SCY-078 (combined) vs. Fluconazole, Recurrences Requiring Antifungal Therapy ([1]; Month 4): −11%
- % Δ SCY-078 (combined) vs. Fluconazole, “0” Signs and Symptoms ([1]; Month 4): 15%
- Clinical Cure, rate [1, 8]: 87.5%
- Recurrences Requiring Antifungal Therapy, rate [1, 8]: 4.2%
- “0” Signs and Symptoms, rate [1, 8]: 79.1%
- Clinical Cure, rate [1, 9]: 88.46%
- Recurrences Requiring Antifungal Therapy, rate [1, 9]: 3.8%
- “0” Signs and Symptoms, rate [1, 9]: 80.7%
- Clinical Cure, rate [1, 4]: 88%
- Recurrences Requiring Antifungal Therapy, rate [1, 4]: 4%
- “0” Signs and Symptoms, rate [1, 4]: 80%
- rate of mycological eradication ([1]; Month 4): 74%
- GI adverse events (e.g., nausea, diarrhea) ([1]; in vivo): higher rate of GI adverse events
- mycological eradication ([2]; Day 10, mITT): 63%
- percentage of patients showing an S&S score of 0 or 1 ([2]; Day 10, mITT): 70%
- mean S&S score ([2]; Day 10, mITT): 1.0
- clinical cure [2]: 52%
- clinical cure, number of patients [2]: 14
- mycological eradication ([2]; Day 25): 48%
- mean S&S score ([2]; Day 25): 0.4
- percentage of patients with 0-or-1 S&S score [2]: 81%
- percentage of patients with clinical cure [2]: 70%
- patients who received rescue antifungal medication [2]: 4%
